Values belong to the compound of their own block, whether it stands above or below them.
Columns and labels:
[1] = molecular target: Plasmepsin V (Plasmodium vivax, UniProt A0A0H4FQ60); test: Inhibition of recombinant Plasmodium vivax Plasmepsin V
[2] = molecular target: cGMP-dependent protein kinase (Plasmodium falciparum, UniProt W7JX98); test: Inhibition of Plasmodium falciparum NF54 PKG
[3] = Inhibition of Plasmodium falciparum 3D7 EF2

Chain of cGMP-dependent protein kinase (W7JX98 whole entry): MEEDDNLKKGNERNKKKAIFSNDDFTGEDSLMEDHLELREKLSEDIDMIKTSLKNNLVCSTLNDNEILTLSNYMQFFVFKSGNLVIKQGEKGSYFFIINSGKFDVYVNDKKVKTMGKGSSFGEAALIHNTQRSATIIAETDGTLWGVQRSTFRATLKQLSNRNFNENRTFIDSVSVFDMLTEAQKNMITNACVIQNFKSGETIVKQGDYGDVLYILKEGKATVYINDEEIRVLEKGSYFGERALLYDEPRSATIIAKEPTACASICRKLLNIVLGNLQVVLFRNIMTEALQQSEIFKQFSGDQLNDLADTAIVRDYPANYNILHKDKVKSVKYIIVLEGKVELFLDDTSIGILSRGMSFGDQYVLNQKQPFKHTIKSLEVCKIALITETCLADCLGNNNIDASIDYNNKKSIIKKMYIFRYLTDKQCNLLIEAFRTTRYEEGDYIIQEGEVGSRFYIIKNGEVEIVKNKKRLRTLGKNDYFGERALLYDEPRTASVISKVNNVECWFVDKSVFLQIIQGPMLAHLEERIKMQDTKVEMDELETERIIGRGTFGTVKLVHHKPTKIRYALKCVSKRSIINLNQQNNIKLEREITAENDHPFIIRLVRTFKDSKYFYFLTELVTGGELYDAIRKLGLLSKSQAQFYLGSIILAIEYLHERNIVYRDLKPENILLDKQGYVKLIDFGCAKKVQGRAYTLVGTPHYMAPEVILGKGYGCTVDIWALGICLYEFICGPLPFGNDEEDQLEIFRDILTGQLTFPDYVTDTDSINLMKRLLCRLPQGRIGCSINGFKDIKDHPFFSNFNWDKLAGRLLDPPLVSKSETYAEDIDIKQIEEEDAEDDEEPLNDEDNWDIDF
Chain of Plasmepsin V (A0A0H4FQ60 whole entry): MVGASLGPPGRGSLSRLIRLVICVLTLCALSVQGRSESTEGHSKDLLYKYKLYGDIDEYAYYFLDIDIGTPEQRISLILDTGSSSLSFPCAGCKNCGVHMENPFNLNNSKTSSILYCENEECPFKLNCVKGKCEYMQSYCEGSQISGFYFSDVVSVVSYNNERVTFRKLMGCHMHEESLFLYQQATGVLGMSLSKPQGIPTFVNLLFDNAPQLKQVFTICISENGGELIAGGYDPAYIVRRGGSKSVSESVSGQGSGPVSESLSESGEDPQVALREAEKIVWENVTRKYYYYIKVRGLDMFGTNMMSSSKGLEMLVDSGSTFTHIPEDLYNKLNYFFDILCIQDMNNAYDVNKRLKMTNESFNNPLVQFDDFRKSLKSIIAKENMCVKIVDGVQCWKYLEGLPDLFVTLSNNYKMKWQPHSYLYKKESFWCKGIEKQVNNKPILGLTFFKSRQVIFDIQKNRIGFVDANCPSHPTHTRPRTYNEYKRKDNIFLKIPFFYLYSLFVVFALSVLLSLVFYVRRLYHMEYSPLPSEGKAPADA

IC50 [1]: 0.2 nM
Structure (SMILES): CC(C)C[C@H](NC(=O)[C@@H](NC(=O)[C@H](CCONC(=N)N)NC(=O)OCc1ccccc1)C(C)C)[C@@H](O)CC(=O)NCCc1ccccc1

IC50 [2]: 0.16 nM
Structure (SMILES): CN(C)Cc1ccn2c(-c3ccnc(NCC4CC4)n3)c(-c3ccc(F)c(NS(C)(=O)=O)c3)nc2c1

IC50 [3]: 2 nM
Structure (SMILES): O=C(NCCN1CCCC1)c1cc(-c2ccc(CN3CCOCC3)cc2)nc2ccc(F)cc12 [CABAMIQUINE]

Source: ChEMBL document CHEMBL5537173, “Emerging Drug Targets for Antimalarial Drug Discovery: Validation and Insights into Molecular Mechanisms of Function” (J Med Chem, 2024)
